Measurements published in US11155576B2, “Synthetic peptides, enzymatic formation of pericellular hydrogels/nanofibrils, and methods of use” (BRANDEIS UNIVERSITY, priority 2014, dated 2021).

Key:
Ect1/E6E7 cells = experiment: Confocal microscopy, Congo red/DAPI staining, Ect1/E6E7; assay type: cell-based, human; details: 560 μM, 12 hours
Experimental: Cells in exponential growth phase were seeded in a glass bottomed culture chamber at 2×10^4 cells/well. Cells were allowed to attach for 24 hours at 37° C., 5% CO2. […] Following 12 hours of incubation, cells were washed 3 times with PBS prior to being stained with 0.1 mg/mL Congo red and 0.6 μM DAPI in PBS buffer (30 minutes at 37° C. in the dark). Next, cells were rinsed three times with PBS, and then kept in PBS for imaging.
Ect1/E6E7 cells (immortalized normal human cervical epithelial cells, which have same tissue and organ origins as HeLa cells) were treated with the same procedure as described for HeLa cells above. […] The difference of hydrogel/nanonets formation by D-2a conversion to D-2b on HeLa cells and Ect1/E6E7 cells agrees with the notion that HeLa cells have higher levels of phosphatase activity than Ect1/E6E7 cells (FIG. 9).

[1] = Cell viability assay (MTT), Ect1/E6E7; assay type: cell-based; details: human, Ect1/E6E7 cells, read-out: Cells remaining viable
Experimental: (§1) Cells in exponential growth phase were seeded in a 96 well plate at a concentration of 2×10^4 cells/well. The cells were allowed to attach to the wells for 24 hours at 37° C., 5% CO2. The culture medium was removed and 100 μL culture medium containing compounds (immediately diluted from fresh prepared stock solution of 10 mM) at gradient concentrations (0 μM as the control) was placed into each well. After culturing at 37° C., 5% CO2 for 48 hours, each well was added by 10 μL of 5 mg/mL MTT (3-(4,5-dimethylthiazoL-2-yl)-2,5-diphenyltetrazolium bromide), and the plated cells were incubated in the dark for 4 hours. 100 μL 10% SDS with 0.01M HCl was added to each well to stop the reduction reaction and to dissolve the purple. After overnight incubation of the cells at 37° C., the OD at 595 nm of the solution was measured in a microplate reader. Data represent the mean±standard deviation of three independent experiments.

[2] = test system: secretory phosphatases present in HeLa cell conditioned medium; experiment: Hydrogelation in HeLa cell conditioned medium; assay type: biochemical, human; details: 48 hours
Experimental: 2×10^5 of cells in exponential growth phase were seeded in a 35 mm Petri dish with 1 mL complete culture medium. Following overnight incubation, 1 mL of new medium was replaced and incubated for 24 h at 5% CO2, 37° C. The medium was next removed and centrifuged at 10,000 rpm for 5 minutes. The suspension was placed into a 1.5 mL Eppendorf® tube and stored at −20° C. Stored conditioned medium was thawed and warmed to 37° C. in water bath immediately before use.
HeLa cell conditioned medium (“CM”) dephosphorylates D-2a to form D-2b nanofibrils.

[3] = Cell viability assay (MTT), HeLa; assay type: cell-based, human; details: human, HeLa cells, 48 hour incubation
Experimental: as §1

HeLa cells [4] = experiment: LC-MS composition of pericellular hydrogel/nanofibrils and suspension medium of HeLa cells; assay type: in vitro ADME, human
HeLa cells [5] = experiment: Cell adhesion assay; assay type: cell-based, human; details: 560 μM, trypsinized HeLa cells, at 4 hours
Experimental: Cells in exponential growth phase were detached using 0.25% trypsin-EDTA. After neutralizing trypsin by addition of complete culture medium, the cells were collected by centrifuge (1000 rpm, 3 min). The cell pellet was suspended by addition of culture medium to a concentration of 4×10^5 cells/mL. 1 mL of the cell suspension was mixed with 1 mL of 2×D-2a or D-2b containing culture media. The resulting solutions were added into 96 well plate at 100 μL/well. After the desired time of incubation at 37° C., 5% CO2, the solution was gently removed, and then 100 μL of culture medium and 10 μL of 5 mg/mL MTT were added to each well. Following 4 hour incubation in the dark, 100 μL of 10% SDS with 0.01M HCl was added to each well to stop the reduction reaction and to dissolve the purple. After incubation of the cells at 37° C. for overnight, the viability was measured. Data represent the mean±standard deviation of three independent experiments.

phosphatases = experiment: Phosphatase activity assay of gel, suspension and control medium of HeLa cells; assay type: cell-based, human; details: HeLa cells treated with 560 μM D-2a, after removing the hydrogel
Experimental: Phosphatase activity was evaluated by the alkaline phosphatase assay using the Abcam Alkaline Phosphatase Assay Kit following the supplied protocol. In brief, 50 μL of 5 mM pNPP solution in assay buffer was mixed with 80 μL of the sample solutions in 96 well plate. The mixed solution was incubated at 25° C., protected from light. 20 μL of stop solution was added to each test and the OD at 405 nm of the solution was measured in a microplate reader.
To verify whether the pericellular hydrogel/nanonets block the entry of secretory proteins/enzymes into the culture medium, the amount of phosphatases in four experimental samples was evaluated: blank medium (Blank), medium incubated with untreated HeLa cells (Control), the pericellular hydrogel from HeLa cells treated with 560 μM D-2a for 12 hours (Gel), and the suspension of the medium of HeLa cells treated with D-2a after removing the hydrogel (Suspension). The amount of phosphatases accumulated in the Gel is about 27 times higher than that found in the Control (FIG. 3B). […] In other words, the pericellular hydrogel/nanonets largely block cellular mass exchange between the cells and their environment.

MES-SA cells = experiment: Cell viability assay (MTT), MES-SA; assay type: cell-based; details: 280 μM
Experimental: as §1

[6] = test system: Alkaline-phosphatase (“ALP”); details: D-2a 0.20 wt %/2.77 mM
Description: […] Scale bar=100 nm.
Napthalene capped tripeptide precursor molecule D-2a and hydrogelator molecule D-2b, synthesized according to Yang et al. (Small 3:558-562 (2007), which is hereby incorporated by reference in its entirety), are comprised of the tripeptide D-Phe-D-Phe-D-Tyr (FIG. 1B). The D-Tyr of D-2a is phosphorylated (FIG. 1B).

[7] = HeLa cells incubated with precursor at 560 μM at 37° C. for 12 hours

O=C(Cc1ccc2ccccc2c1)N[C@H](Cc1ccccc1)C(=O)N[C@H](Cc1ccccc1)C(=O)N[C@H](Cc1ccc(OP(=O)(O)O)cc1)C(=O)O [D-2a, Nap-D-Phe-D-Phe-D-Tyr(PO3H2)]
Congo red fluorescence on cells (Ect1/E6E7 cells): hardly display any red fluorescence | DAPI entry into cells (Ect1/E6E7 cells): DAPI stains the nuclei | viability at 48 h, 280 µM [1]: > 60% | Hydrogel formation in HeLa cell conditioned medium ([2]; 140 μM): fails to form a hydrogel | Hydrogel formation in HeLa cell conditioned medium ([2]; 280 μM): completely transforms from a solution to a hydrogel | Hydrogel formation in HeLa cell conditioned medium ([2]; 560 μM): completely transforms from a solution to a hydrogel | viability at 48 h, 280 µM [3]: ~10% | D-2b in pericellular hydrogel (HeLa cells [4]; [7]): 2053.9 µM | D-2b in suspension medium (HeLa cells [4]; [7]): 502.5 µM | Concentration of D-2b in the hydrogel (LC-MS) (HeLa cells [4]; hydrogel of FIG. 2A, HeLa monolayers treated with 500 μM D-2a as printed): approximately 2.05 mM | Cells reattached to surface (HeLa cells [5]): less than 5% | Amount of phosphatases in the Suspension relative to the Control (phosphatases): significantly lower than that in the Control | Growth inhibition (MES-SA cells): inhibits the growth | Hydrogel formation after ALP-catalyzed dephosphorylation [6]: self assembles to form the nanofibrils of a hydrogel
